Here are results for five molecules from patent US20250145573A1, “COMPOSITION FOR PREVENTING, ALLEVIATING OR TREATING CANCER” (CKP Therapeutics, Inc., priority 2023, published 2025).

Each structure is given as a SMILES string.

For assay [1], the system named is metastatic PTC cells (YUMC-P1 or -P2-meta) xenograft. The experiment in a line: Human PTC cell xenograft, metastatic PTC cells. In kind it is in vivo, mice. The note with it: for tumor shrinkage: YUMC-P1 or -P2-meta xenograft; for tumor shrinkage (summary statement): xenograft tumor model developed using patient-derived antineoplastic-resistant cells. How it is done:
(§1) All experiments were approved by the Animal Experiment Committee of Yonsei University. YUMC-S-P1, YUMC-P1 and -P2-main or meta patient-derived PTC cells (4.4×10^6 cells/mouse) were cultured in vitro and then injected subcutaneously into the upper left flank region of female NOD/Shi-scid, IL-2Rγ KOJic (NOG) mice. After 15 days, tumor-bearing mice were grouped randomly (n=10 per group) and treated SERCA inhibitors, thapsigargin (25 mg/kg), candidate 33 (12 mg/kg) and 36 (12 mg/kg, p.o.) with 80 mg/kg sorafenib (p.o.) either alone or combination. Tumor size was measured every three day using calipers. Tumor volume was estimated using the following formula: L×S2/2 (L, longest diameter; S, shortest diameter). Animals were maintained under specific pathogen-free conditions. All experiments were approved by the Animal Experiment Committee of Yonsei University.
(§2) We developed mouse xenograft models using anti cancer drug-sensitive (YUMC-S-P1) and metastatic PTC (YUMC-P1 and -P2-meta) cells and evaluated the anticancer effect of monotherapy with sorafenib, lenvatinib or with SERCA inhibitors (thapsigargin, CKP1 and 2) as well as that of the combination therapy between sorafenib or lenvatinib and a SERCA inhibitor. […] No significant changes in resected tumor weight were found between any of the treatment groups (FIG. 5a to 5e).
In general terms: Xenograft models place foreign cells or tissue in a host animal.

The test system of assay [2] is YUMC-S-P1 cells xenograft. The experiment in a line: Human PTC cell xenograft, anti cancer drug-sensitive PTC cells. Type of assay: in vivo, mice. How it is done:
as §1, §2

In assay [3] the test system is YUMC-S-P1, YUMC-P1-main, YUMC-P2-main cells. The experiment in a line: Cell viability assay (MTT), anti-cancer drug-sensitive and main mass PTC cells. Type of assay: cell-based, human. How it is done:
(§3) Cell viability was measured using the MTT (3-(4,5-Dimethylthiazol-2-yl)-2,5-Diphenyltetrazolium Bromide) assay, cells were seeded in 96-well plates at 7×10^3 cells per well and incubated overnight to achieve 80% confluency. The detailed protocol can be found in our previous article. Data were expressed as a percentage of the signal observed in vehicle-treated cells and are shown as the means±SEM of triplicate experiments.
(§4) To evaluate to the anti-cancer efficacy of CKP1 and 2, combinatorial strategies with sorafenib or lenvatinib, we carried out cell viability assays for anti-cancer drug-sensitive (YUMC-S-P1) and main mass or lymph node metastasis PTC (YUMC-P1-main or YUMC-P2-main or YUMC-P1-meta or YUMC-P2-meta) cells treated with sorafenib or levatinib each agent treated alone or with CKP1 and CKP2.

The subject of assay [4] is metastatic PTC (YUMC-P1-meta or YUMC-P2-meta) cells. As to the kind of experiment: Cell viability assay (MTT), metastatic PTC cells. Type of assay: cell-based, human. How it is done:
as §3, §4

Setting [5] is: sorafenib or lenvatinib without SERCA inhibitors.
[6] abbreviates: sorafenib or lenvatinib without CKP1 and CKP2, dose-dependent, YUMC-S-P1, YUMC-P1-main, YUMC-P2-main.
[7] abbreviates: sorafenib or lenvatinib treatment alone, YUMC-P1-meta or YUMC-P2-meta.
Setting [8] is: combination of sorafenib or lenvatinib with SERCA inhibitor.
[9] abbreviates: SERCA inhibitor with sorafenib or lenvatinib.
Setting [10] is: SERCA inhibitor alone treatment, whole PTC cells.
The mark [11] stands for this setting: in combination with sorafenib or lenvatinib, dose-dependent, YUMC-S-P1, YUMC-P1-main, YUMC-P2-main.
Setting [12] is: combinatorial with sorafenib or lenvatinib treatment, dose-dependent, YUMC-P1-meta or YUMC-P2-meta.

In the case of `COc1cc2nccc(Oc3ccc(NC(=O)NC4CC4)c(Cl)c3)c2cc1C(N)=O` [lenvatinib, reference compound], the tumor shrinkage entry in assay [1] (monotherapy) was “did not induce significant tumor shrinkage”. In assay [2] (setting [5]), the tumor size result is recorded as “decreased significantly tumor size”. The cell viability result is recorded as “significantly decreased” in assay [3] (setting [6]) and “no remarkably influenced” in assay [4] (setting [7]).
`CNC(=O)c1cc(Oc2ccc(NC(=O)Nc3ccc(Cl)c(C(F)(F)F)c3)cc2)ccn1` [sorafenib, reference compound]: the tumor shrinkage result in assay [1] (monotherapy) is “did not induce significant tumor shrinkage”. Further, the tumor size result in assay [2] (setting [5]) is “decreased significantly tumor size”. For the same molecule, the cell viability result in assay [3] (setting [6]) was “significantly decreased”; in assay [4] (setting [7]) it was “no remarkably influenced”.
As for `Cc1cc(C=Nc2ccc(Cl)cc2)c2cccc(C)c2n1` [CKP1], in assay [1] (setting [8]), the tumor shrinkage result is recorded as “substantial tumor shrinkage”. Moreover, in assay [1], the “tumor shrinkage (summary statement)” value is “significant tumor shrinkage”. The tumor size entry in assay [2] (setting [9]) was “decreased significantly tumor size”. In addition, the cell viability entry in assay [3] (setting [10]) is listed as “did not critical influence”; in assay [3] (setting [11]) it was “significantly decreased”; in assay [4] (setting [10]) it was “did not critical influence”; in assay [4] (setting [12]), “remarkably restrained the viability”.
In the case of `Cc1cc(N=Cc2ccc(Cl)cc2)c2cccc(C)c2n1` [CKP2], the tumor shrinkage result in assay [1] (setting [8]) is on record as “substantial tumor shrinkage”. Further, the “tumor shrinkage (summary statement)” value in assay [1] was “significant tumor shrinkage”. For the same molecule, in assay [2] (setting [9]), the tumor size result is “decreased significantly tumor size”. In addition, the cell viability result in assay [3] (setting [10]) is “did not critical influence”; in assay [3] (setting [11]) it was “significantly decreased”; in assay [4] (setting [10]), “did not critical influence”; in assay [4] (setting [12]), “remarkably restrained the viability”.
Regarding `C/C=C(/C)C(=O)O[C@H]1C(C)=C2[C@H]([C@@H]1OC(=O)CCCCCCC)[C@@](C)(OC(C)=O)C[C@H](OC(=O)CCC)[C@@]1(O)[C@H]2OC(=O)[C@@]1(C)O` [thapsigargin, reference compound], the tumor shrinkage entry in assay [1] (setting [8]) is given as “substantial tumor shrinkage”. Besides, the tumor size result in assay [2] (setting [9]) is on record as “decreased significantly tumor size”. The cell viability entry in assay [3] (setting [10]) is recorded as “did not critical influence”; in assay [4] (setting [10]), “did not critical influence”; in assay [4] (setting [12]) it was “remarkably restrained the viability”.
